Laboratory results from patent publication US8466176B2 (priority 2008, dated 2013).
Where two headings read alike, the source gives them in different places.

Tests used:
[1] = Measurement of logP values according EEC directive 79/831 Annex V.A8 by HPLC on reversed phase columns; format: physicochemical; conditions: for chromatographic logP: reversed phase HPLC columns, read-out: log p
[2] = logP(HCOOH) reported with HPLC/MS
[3] = logP by HPLC on reversed phase columns, method [a], pH 2.3 with 0.1% phosphoric acid and acetonitrile; format: physicochemical; conditions: reversed phase HPLC columns; method [a]: pH 2.3, 0.1% phosphoric acid and acetonitrile as eluent; EEC directive 79/831 Annex V.A8, reversed phase HPLC; read-out: log p
Phytophthora infestans = experiment: whole plant or invertebrate; format: in vivo; conditions: in Solanum lycopersicum, 168 h, read-out: efficacy
[4] = method [c]: LC-MS at pH 7.8, 0.001 molar ammonium hydrogen carbonate in water, linear gradient 10% to 95% acetonitrile
[5] = method [a]: pH 2.3 with 0.1% phosphoric acid and acetonitrile as eluent
[6] = HCOOH (formic acid), logP(HCOOH), HPLC/MS
[7] = reversed phase HPLC column, pH 2.7, log p, method [b]: LC-MS at pH 2.7, 0.1% formic acid in water and acetonitrile, linear gradient 10% to 95% acetonitrile
[8] = no method mark printed in the cell

Cn1nnnc1C(=NOCc1csc(/C=C/CC2CCCC2)n1)c1ccccc1 [Example 279]
log p [1, 5]: 5.14^[a]

Cn1nnnc1C(=NOCc1csc(C#CC2CC2)n1)c1ccccc1 [Example 70, N-{[2-(cyclopropylethynyl)-1,3-thiazol-4-yl]methoxy}-1-(1-methyl-1H-tetrazol-5-yl)-1-phenylmethanimine]
chromatographic logP [2, 6]: 3.58
chromatographic logP [3]: 3.58
pest or weed control at 500 ppm (Phytophthora infestans): ≥ 70%

CCCC/C=C/c1nc(CON=C(c2ccccc2)c2nnnn2C)cs1 [Example 278, N-({2-[(1E)-hex-1-en-1-yl]-1,3-thiazol-4-yl}methoxy)-1-(1-methyl-1H-tetrazol-5-yl)-1-phenylmethanimine]
chromatographic logP ([2]; HPLC, logP(HCOOH), HPLC/MS): 4.56
chromatographic logP [1, 5]: 4.56

Cn1nnnc1C(=NOCc1nc(C#CC2CC2)sc1Cl)c1ccccc1 [Example 114, N-{[5-chloro-2-(cyclopropylethynyl)-1,3-thiazol-4-yl]methoxy}-1-(1-methyl-1H-tetrazol-5-yl)-1-phenylmethanimine]
chromatographic logP [2, 6]: 4.59
chromatographic logP [2, 7]: 4.59
pest or weed control at 500 ppm (Phytophthora infestans): ≥ 70%

Cn1nnnc1C(=NOCc1csc(/C=C/C2CC2)n1)c1ccccc1 [Example 277]
log p [1, 5]: 3.58^[a]

Cn1nnnc1C(=NOCc1cccc(NCC2CCCCC2)n1)c1ccccc1 [Example 289]
log p [1, 5]: 2.43^[a]

Cn1nnnc1C(=NOCc1cccc(Br)n1)c1ccccc1 (single isomer, unassigned) [Example 306]
log p [1, 8]: 3.19

COc1ccc(CON=C(c2ccccc2)c2nnnn2C)nc1C#CC1CC1 [Example 126, N-{[6-(cyclopropylethynyl)-5-methoxypyridin-2-yl]methoxy}-1-(1-methyl-1H-tetrazol-5-yl)-1-phenylmethanimine]
chromatographic logP [2, 6]: 3.23
chromatographic logP [2, 7]: 3.23
pest or weed control at 500 ppm (Phytophthora infestans): ≥ 70%

COCC#Cc1cccc(CON=C(c2ccccc2)c2nnnn2C)n1 [Example 24]
log p [4]: 3.04^[c]

CCCCC#Cc1ccc(F)c(CON=C(c2ccccc2)c2nnnn2C)n1 [Example 99, N-{[3-fluoro-6-(hex-1-yn-1-yl)pyridin-2-yl]methoxy}-1-(1-methyl-1H-tetrazol-5-yl)-1-phenylmethanimine]
chromatographic logP ([2]; logP(HCOOH), HPLC/MS): 4.41
chromatographic logP [2, 7]: 4.41
pest or weed control at 500 ppm (Phytophthora infestans): ≥ 70%

Cn1nnnc1C(=NOCc1cccc(NCC2CCCC2)n1)c1ccccc1 [Example 288]
log p [1, 5]: 2.3^[a]

Cn1nnnc1C(=NOCc1cccc(/C=C/C2CCCCC2)n1)c1ccccc1 [Example 93, N-({6-[(E)-2-cyclohexylvinyl]pyridin-2-yl}methoxy)-1-(1-methyl-1H-tetrazol-5-yl)-1-phenylmethanimine]
chromatographic logP ([2]; HPLC, logP(HCOOH), HPLC/MS): 5.05
chromatographic logP [3]: 5.05
pest or weed control at 500 ppm (Phytophthora infestans): ≥ 70%

Cn1nnnc1C(=NOCc1nc(Cl)sc1Cl)c1ccccc1 [Example 113, N-[(2,5-dichloro-1,3-thiazol-4-yl)methoxy]-1-(1-methyl-1H-tetrazol-5-yl)-1-phenylmethanimine]
chromatographic logP [2, 6]: 3.67
chromatographic logP [2, 7]: 3.67
pest or weed control at 500 ppm (Phytophthora infestans): ≥ 70%

CCCCC1CC(c2cccc(CON=C(c3ccccc3)c3nnnn3C)n2)=NO1 (stereo not shown) [Example 276]
log p [1, 5]: 4.26^[a]

Cn1nnnc1C(=NOCc1csc(Br)n1)c1ccccc1 [Example 32, N-[(2-bromo-1,3-thiazol-4-yl)methoxy]-1-(1-methyl-1H-tetrazol-5-yl)-1-phenyl-methanimine]
chromatographic logP ([2]; logP(HCOOH), HPLC/MS): 3.11
pest or weed control at 500 ppm (Phytophthora infestans): ≥ 70%

Cn1nnnc1C(=NOCc1cccc(C2OCCO2)n1)c1ccccc1 [Example 160, N-{[6-(1,3-dioxolan-2-yl)pyridin-2-yl]methoxy}-1-(1-methyl-1H-tetrazol-5-yl)-1-phenylmethanimine]
chromatographic logP ([2]; HPLC, logP(HCOOH), HPLC/MS): 2.47
chromatographic logP ([2]; reversed phase HPLC column, pH 7.8, log p, method [c]: LC-MS, pH 7.8 with 0.001 molar ammonium hydrogen carbonate solution in water, linear gradient 10% to 95% acetonitrile): 2.47
pest or weed control at 500 ppm (Phytophthora infestans): ≥ 70%

Cn1nnnc1C(=NOCc1cccc(C=NOC2CCCCC2)n1)c1ccccc1 [Example 274, N-[(6-{[(cyclohexyloxy)imino]methyl}pyridin-2-yl)methoxy]-1-(1-methyl-1H-tetrazol-5-yl)-1-phenylmethanimine]
chromatographic logP ([2]; logP(HCOOH), HPLC/MS): 4.89
chromatographic logP [1, 5]: 4.89

Cn1nnnc1C(=NOCc1cccc(CO)n1)c1ccccc1 [Example 275, {6-[({[(1-methyl-1H-tetrazol-5-yl)(phenyl)methylene]amino}oxy)methyl]pyridin-2-yl}methanol]
chromatographic logP [2, 6]: 1.76
chromatographic logP [1, 5]: 1.76

Cn1nnnc1C(=NOCc1cccc(Br)n1)c1ccccc1 (single isomer, unassigned) [Example 307]
log p [1, 8]: 3.00
